Reference: ChEMBL document CHEMBL5614460, “Discovery of novel substituted pyridine carboxamide derivatives as potent allosteric SHP2 inhibitors” (Eur J Med Chem, 2024)
Blank lines part the entries; values can stand above or below the molecule they belong to. Calls of active or inactive are those of the source. The rule behind the calls is not given here.

Key:
MV4-11 [1] = experiment: Antitumor activity against human MV4-11 cells xenografted in BALB/C nude mouse model assessed as suppression of tumor growth administered intragastrically as once daily dose for 18 days; format: functional, cell-based; settings: dose 10-30 mg/kg, route ig, time 18.0 day
[2] = molecular target: T1, Tyrosine-protein phosphatase non-receptor type 11 (Homo sapiens, UniProt Q06124); experiment: Allosteric inhibition of N-terminal His-tagged human recombinant SHP2 extracted from Escherichia coli using DiFMUP as substrate preincubated with compound for 60 mins followed by substrate addition and measured after 30 mins by fluorescence based microplate reader analysis
T1 sequence (Q06124 whole entry): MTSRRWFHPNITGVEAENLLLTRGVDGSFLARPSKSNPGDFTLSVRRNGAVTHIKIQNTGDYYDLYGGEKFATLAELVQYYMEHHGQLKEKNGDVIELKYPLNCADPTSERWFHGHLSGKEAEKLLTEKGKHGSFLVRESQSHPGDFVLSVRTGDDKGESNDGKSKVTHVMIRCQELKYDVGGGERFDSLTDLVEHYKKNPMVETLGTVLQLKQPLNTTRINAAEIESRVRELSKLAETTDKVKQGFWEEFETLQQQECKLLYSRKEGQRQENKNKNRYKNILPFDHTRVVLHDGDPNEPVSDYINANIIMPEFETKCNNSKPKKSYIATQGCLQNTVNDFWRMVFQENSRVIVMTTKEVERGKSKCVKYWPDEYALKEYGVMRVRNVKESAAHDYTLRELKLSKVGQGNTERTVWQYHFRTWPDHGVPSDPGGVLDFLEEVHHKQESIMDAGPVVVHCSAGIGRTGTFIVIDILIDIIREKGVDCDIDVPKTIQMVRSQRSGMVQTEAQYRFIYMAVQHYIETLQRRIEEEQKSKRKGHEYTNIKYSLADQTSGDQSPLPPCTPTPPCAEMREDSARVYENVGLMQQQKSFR

MV4-11 [3] = experiment: Antiproliferative activity against human MV4-11 cells assessed as inhibition of cell proliferation incubated for 72 hrs by CCK-8 assay; format: functional, cell-based
MV4-11 [4] = experiment: Potency index, ratio of TNO155 IC50 to test compound IC50 for antiproliferative activity against human MV4-11 cells assessed as inhibition of cell proliferation incubated for 72 hrs by CCK-8 assay; format: functional
[5] = molecular target: T2, Tyrosine-protein phosphatase non-receptor type 11 (Homo sapiens) (UniProt Q06124); experiment: Inhibition of SHP2 PTP domain (unknown origin) using DiFMUP as substrate at 10 uM preincubated with compound for 60 mins followed by substrate addition and measured after 30 mins by fluorescence based microplate reader analysis relative to control; settings: time 90.0 min
T2 sequence (whole entry): T1 sequence (Q06124 whole entry)

[6] = molecular target: Tyrosine-protein phosphatase non-receptor type 6 (Homo sapiens) (UniProt P29350); experiment: Inhibition of SHP1 (unknown origin) using DiFMUP as substrate at 10 uM preincubated with compound for 60 mins followed by substrate addition and measured after 30 mins by fluorescence based microplate reader analysis relative to control; settings: time 90.0 min
Sequence of Tyrosine-protein phosphatase non-receptor type 6 (Homo sapiens) (P29350 whole entry): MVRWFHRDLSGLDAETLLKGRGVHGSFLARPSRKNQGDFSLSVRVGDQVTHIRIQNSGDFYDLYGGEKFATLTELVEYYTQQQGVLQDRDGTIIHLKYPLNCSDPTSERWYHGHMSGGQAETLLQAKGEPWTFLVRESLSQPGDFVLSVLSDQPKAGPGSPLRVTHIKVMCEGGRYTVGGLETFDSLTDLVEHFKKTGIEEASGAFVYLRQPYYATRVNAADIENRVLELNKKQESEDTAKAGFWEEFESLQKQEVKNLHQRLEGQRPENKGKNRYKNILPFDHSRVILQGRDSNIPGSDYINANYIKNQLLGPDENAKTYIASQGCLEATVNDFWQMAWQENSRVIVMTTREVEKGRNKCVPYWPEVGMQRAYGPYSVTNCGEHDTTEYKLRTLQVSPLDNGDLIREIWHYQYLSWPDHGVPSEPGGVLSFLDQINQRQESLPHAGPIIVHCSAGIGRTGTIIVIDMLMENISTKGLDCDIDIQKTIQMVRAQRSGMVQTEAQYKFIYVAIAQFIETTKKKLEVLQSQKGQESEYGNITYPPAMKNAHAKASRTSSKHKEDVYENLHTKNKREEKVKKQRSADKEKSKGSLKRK

[7] = molecular target: T3, Tyrosine-protein phosphatase non-receptor type 1 (Homo sapiens) (UniProt P18031); experiment: Inhibition of PTP1B (unknown origin) using DiFMUP as substrate at 10 uM preincubated with compound for 60 mins followed by substrate addition and measured after 30 mins by fluorescence based microplate reader analysis relative to control; settings: time 90.0 min
T3 sequence (whole entry): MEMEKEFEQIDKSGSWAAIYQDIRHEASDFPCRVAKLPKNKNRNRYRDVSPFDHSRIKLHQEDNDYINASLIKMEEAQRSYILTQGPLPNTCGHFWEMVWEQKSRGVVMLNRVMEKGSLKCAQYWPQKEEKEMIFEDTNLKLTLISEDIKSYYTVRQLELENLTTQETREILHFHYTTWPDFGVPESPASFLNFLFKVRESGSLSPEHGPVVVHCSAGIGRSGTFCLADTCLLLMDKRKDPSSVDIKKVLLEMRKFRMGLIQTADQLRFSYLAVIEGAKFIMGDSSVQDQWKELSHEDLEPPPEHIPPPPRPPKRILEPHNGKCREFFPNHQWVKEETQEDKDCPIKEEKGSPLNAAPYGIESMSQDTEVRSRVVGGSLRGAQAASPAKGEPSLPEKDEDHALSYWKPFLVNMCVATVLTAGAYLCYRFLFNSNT

[8] = Cmax in male Sprague-Dawley rat at 2 mg/kg, iv measured for 24 hrs by LC/MS analysis; format: ADME, organism-based; settings: in vivo
[9] = Cmax in male Sprague-Dawley rat at 10 mg/kg, po measured for 24 hrs by LC/MS analysis; format: ADME, organism-based; settings: in vivo
[10] = Tmax in male Sprague-Dawley rat at 2 mg/kg, iv measured for 24 hrs by LC/MS analysis; format: ADME, organism-based; settings: in vivo
[11] = Tmax in male Sprague-Dawley rat at 10 mg/kg, po measured for 24 hrs by LC/MS analysis; format: ADME, organism-based; settings: in vivo
[12] = Half life in male Sprague-Dawley rat at 2 mg/kg, iv measured for 24 hrs by LC/MS analysis; format: ADME, organism-based; settings: in vivo
[13] = Half life in male Sprague-Dawley rat at 10 mg/kg, po measured for 24 hrs by LC/MS analysis; format: ADME, organism-based; settings: in vivo
[14] = AUC (0 to infinity) in male Sprague-Dawley rat at 2 mg/kg, iv measured for 24 hrs by LC/MS analysis; format: ADME, organism-based; settings: in vivo
[15] = AUC (0 to infinity) in male Sprague-Dawley rat at 10 mg/kg, po measured for 24 hrs by LC/MS analysis; format: ADME, organism-based; settings: in vivo
[16] = Apparent volume of distribution during terminal phase in male Sprague-Dawley rat at 2 mg/kg, iv measured for 24 hrs by LC/MS analysis; format: ADME, organism-based; settings: in vivo
[17] = Apparent clearance during terminal phase in male Sprague-Dawley rat at 2 mg/kg, iv measured for 24 hrs by LC/MS analysis; format: ADME, organism-based; settings: in vivo
[18] = Oral bioavailability in male Sprague-Dawley rat at 10 mg/kg measured for 24 hrs by LC/MS analysis; format: ADME, organism-based; settings: in vivo
MV4-11 [19] = experiment: Antitumor activity against human MV4-11 cells xenografted in BALB/C nude mouse model assessed as tumor growth inhibition at 30 mg/kg, IG administered once daily for 18 days relative to control; format: functional; settings: MV4-11, po, 432 h, time 18 day, read-out: TGI
MV4-11 [20] = experiment: Antitumor activity against human MV4-11 cells xenografted in BALB/C nude mouse model assessed as tumor growth inhibition at 10 mg/kg, IG administered once daily for 18 days relative to control; format: functional; settings: MV4-11, po, 432 h, time 18 day, read-out: TGI
[21] = Toxicity in BALB/C nude mouse xenografted with human […] cells assessed as animal death at 10 to 30 mg/kg, IG administered once daily for 18 days; format: organism-based; settings: in vivo, po, 432 h, dose 10-30 mg/kg, time 18 day
[22] = Toxicity in BALB/C nude mouse xenografted with human […] cells assessed as change in body weight at 10 to 30 mg/kg, IG administered once daily for 18 days; format: organism-based; settings: in vivo, po, 432 h, dose 10-30 mg/kg, time 18 day
MV4-11 [23] = experiment: Antitumor activity against human MV4-11 cells xenografted in BALB/C nude mouse model assessed as appearance of pyknotic nuclei in tumor at 10 to 30 mg/kg, IG administered once a day for 18 days by H and E staining based analysis; format: functional, organism-based; settings: dose 10-30 mg/kg, time 18.0 day
MV4-11 [24] = experiment: Antitumor activity against human MV4-11 cells xenografted in BALB/C nude mouse model assessed as appearance of shrunken nuclei in tumor at 10 to 30 mg/kg, IG administered once a day for 18 days by H and E staining based analysis; format: functional, organism-based; settings: dose 10-30 mg/kg, time 18.0 day
[25] = molecular target: T2, Tyrosine-protein phosphatase non-receptor type 11 (Homo sapiens); experiment: Inhibition of SHP2 in human MV4-11 cells assessed as downregulation of phosphorylated Akt level incubated for 12 hrs by Western blot analysis; format: cell-based; settings: dose 0-5 µM
[26] = molecular target: T2, Tyrosine-protein phosphatase non-receptor type 11 (Homo sapiens); experiment: Inhibition of SHP2 in human MV4-11 cells assessed as downregulation of phosphorylated ERK level incubated for 12 hrs by Western blot analysis; format: cell-based; settings: dose 0-5 µM
MV4-11 [27] = experiment: Antitumor activity against human MV4-11 cells xenografted in BALB/C nude mouse model assessed as reduction in Ki67 expression administered intragastrically as once daily dose for 18 days by immunohistochemistry staining based analysis; format: functional, cell-based; settings: dose 10-30 mg/kg, route ig, time 18.0 day
MV4-11 [28] = experiment: Antitumor immunity against human MV4-11 cells xenografted in BALB/C nude mouse model assessed as suppression of CD206+/Ly6C+ M2-like tumor associated macrophages in lymphocytes at 10 to 30 mg/kg, IG administered once daily for 18 days by flow cytometric analysis; format: functional, organism-based; settings: dose 10-30 mg/kg, time 18.0 day
MV4-11 [29] = experiment: Antitumor immunity against human MV4-11 cells xenografted in BALB/C nude mouse model assessed as reduction of IL-10 expression level in tumor at 30 mg/kg, IG administered once daily for 18 days by ELISA; format: functional, organism-based; settings: time 18.0 day
MV4-11 [30] = experiment: Antitumor immunity against human MV4-11 cells xenografted in BALB/C nude mouse model assessed as reduction in F4/80+/CD206+ M2-like tumor associated macrophages at 10 to 30 mg/kg, IG administered once daily for 18 days by immunofluorescence staining […]; format: functional, organism-based; settings: dose 10-30 mg/kg, time 18.0 day
[31] = molecular target: T1, Tyrosine-protein phosphatase non-receptor type 11; experiment: Inhibition of SHP2 (unknown origin)
[32] = Toxicity in BALB/C nude mouse xenografted with human […] cells assessed as animal death at 30 mg/kg, IG administered once daily for 18 days; format: organism-based; settings: in vivo, po, 432 h, time 18 day
[33] = Toxicity in BALB/C nude mouse xenografted with human […] cells assessed as change in body weight at 30 mg/kg, IG administered once daily for 18 days; format: organism-based; settings: in vivo, po, 432 h, time 18 day

SMILES: N[C@@H]1c2ccccc2CC12CCN(c1cnc(Sc3cccc(NC(=O)c4cnccc4O)c3Cl)cn1)CC2
- Activity (MV4-11 [1]): Dose-Dependent Effect
- IC50 [2]: 0.13 nM
- IC50 (MV4-11 [3]; Homo sapiens, MV4-11, 72 h): 3.5 nM
- Ratio IC50 (MV4-11 [4]): ~11
- inhibition [5]: 13.2%
- inhibition [6]: 29.3%
- inhibition [7]: 8.7%
- Cmax [8]: 681 ng/mL
- Cmax [9]: 70.1 ng/mL
- Tmax [10]: 1.8 min
- Tmax [11]: 3.24 h
- half-life [12]: 4.26 h
- half-life [13]: 4.66 h
- AUC(0-inf) [14]: 1260 ng·h/mL
- AUC(0-inf) [15]: 762 ng·h/mL
- Vz/F [16]: 11.04 L/kg
- CLz/F [17]: 29 mL/min/kg
- bioavailability [18]: 11.9%
- inhibition in vivo at 30 mg/kg (MV4-11 [19]): 69.5%
- inhibition in vivo at 10 mg/kg (MV4-11 [20]): 45.9%
- Activity [21]: Non-Toxic
- Activity [22]: Non-Toxic
- Activity (MV4-11 [23]): Active
- Activity (MV4-11 [24]): Active
- inhibition [25]: Dose-Dependent Effect
- inhibition [26]: Dose-Dependent Effect
- Activity (MV4-11 [27]): Dose-Dependent Effect
- Activity (MV4-11 [28]): Active
- Activity (MV4-11 [29]): Active
- Activity (MV4-11 [30]): Active

- IC50 [31]: 1.5 nM
SMILES: Cc1nc(N2CCC3(CC2)CO[C@@H](C)[C@H]3N)c(CO)nc1Sc1ccnc(N)c1Cl [VOCIPROTAFIB]

SMILES: C[C@@H]1OCC2(CCN(c3cnc(Sc4ccnc(N)c4Cl)c(N)n3)CC2)[C@@H]1N [BATOPROTAFIB]
- IC50 (MV4-11 [3]; mv4-11): 39 nM
- inhibition in vivo at 30 mg/kg (MV4-11 [19]): 70.8%
- Activity [32]: Non-Toxic
- Activity [33]: Non-Toxic
